# Entries after “also recorded” stand apart in the source; their conditions may differ.
# How the values were obtained:
# MEL-STR cells [1] = test: Annexin V-FITC apoptosis detection by flow cytometry (apoptotic+dead cells); format: cell-based, human; conditions: for fold more potent at inducing apoptosis in STR compared to STVP cells: 5 hour exposure (FIGS. 13, 14); for greater sensitivity / potency advantage, malignant versus non-malignant cells, induction of apoptosis: 5 hrs exposure (FIG. 3, FIG. 4)
# Method: FIG. 2. […] Malignant (MEL-STR) and non-malignant (MEL-STVP) cells used in these experiments were derived originally from normal human foreskin melanocytes obtained from the Weisberg lab. These original surgical samples were genetically modified to grow continuously in vitro and are non-tumor-forming in a nude mouse model. These same cells were genetically modified further to generate the tumor-forming cell line and were propagated.
# Apoptotic+dead cells were assayed in this experiment and those that follow below on a Becton-Dickenson flow cytometer using an Annexin V-FITC Apoptosis Detection Kit as described by the manufacturer.
# Drug exposure time was 5 hrs. Viable and live cells were measured by FACS and by Coulter counting, respectively. […] Panels A & B: solid circles and lines, STR cells; open circles and broken lines, STVP cells; Panel B, inverse logit/log plot of the data from Panel A. Solid gray circles in Panel B (extrapolated minimum values on abscissa) were used to plot the maximum values shown in Panel A.
# certain cancers = conditions: in vivo; cited from earlier work
# MEL-STR cells [2] = test: Cell morphology (FACS light scatter, microscopic examination); format: cell-based, human
# Description: Calmodulin is known to be required for traverse of late G1, G2, and specific periods during mitosis and coincides with periods of elevated […] levels.
# The involvement of a form of PKC in the enzyme tetrad that is involved in Ca^2+-dependent, cell cycle phase transitions is given in FIG. 4. […] Four different means for assaying the effect of these two chemicals are shown.
# MEL-STR cells [3] = test: Annexin V-FITC apoptosis detection by flow cytometry (apoptotic+dead cells); format: cell-based, human; conditions: 60 μm W-7, time course over 24 hrs
# MEL-STVP cells = test: as above; format: cell-based, human
# Description: FIG. 2. […] Malignant (MEL-STR) and non-malignant (MEL-STVP) cells used in these experiments were derived originally from normal human foreskin melanocytes obtained from the Weisberg lab. These original surgical samples were genetically modified to grow continuously in vitro and are non-tumor-forming in a nude mouse model. These same cells were genetically modified further to generate the tumor-forming cell line and were propagated. Thus, this represents an ideal pair of highly similar cells by which drug specificity between normal and malignant cells can be assessed.
# Transformed MEL-STR cells were incubated over a period of 24 hrs in the presence of a previously determined ineffective concentration (10 μm) of the CAM antagonist W-7 or the drug vehicle DMSO (1%) as controls and a concentration of 60 μm W-7 as illustrated. Apoptotic+dead cells were assayed in this experiment and those that follow below on a Becton-Dickenson flow cytometer using an Annexin V-FITC Apoptosis Detection Kit as described by the manufacturer.
# Drug exposure time was 5 hrs. Viable and live cells were measured by FACS and by Coulter counting, respectively. Dose-dependent decreases in viable cells were inversely proportional to the number of Annexin+Propidium Iodide positive staining cells (data not shown) in these and the following experiments. […]
# STVP cells = test: Cell density / growth inhibition by Coulter counting; format: cell-based, human; conditions: PP2B-AIP alone, wide concentration range, 24 hours
# Method: Closed circles, solid lines, PP2B-AIP only; open circles, dashed lines, PP2B+C6C (15 uM). Cell density was quantified by Coulter counting which measures only cells with Panel A, STR cells; Panel B, STVP cells. Closed circles, solid lines, PP2B-AIP only; open circles, dashed lines, PP2B+C6C (15 uM). Cell density was quantified by Coulter counting which measures only cells with ionically intact plasma membranes (presumed live cells). Drug exposure time was 24 hours. Cell density values are expressed as a percentage of maximum for no drug or C6C only controls. Solid black lines in Panels A & B and dashed line in Panel B represent the average of all values across the PP2B-AIP concentration range. The ability of PKC agonists on apoptosis induction is potentiated by antagonists of Calmodulin-dependent protein phosphatase (a.k.a. Calcineurin or PP2B) and these effects occur at lower drug concentrations in transformed cells than in untransformed cells. […]
# STR cells = conditions: PP2B-AIP alone, wide concentration range, 24 hours
# Method: Panel B, cell density measured by Coulter counting; Panel C, morphological changes measured by changes in forward light scatter as measured by FACS; Panel D, percentage of spherical cells was determined on live cell populations by counting approximately 500 cells in a representative field using an inverted phase contrast microscope.
# Closed circles, solid lines, PP2B-AIP only; open circles, dashed lines, PP2B+C6C (15 uM). Cell density was quantified by Coulter counting which measures only cells with Panel A, STR cells; Panel B, STVP cells. Closed circles, solid lines, PP2B-AIP only; open circles, dashed lines, PP2B+C6C (15 uM). Cell density was quantified by Coulter counting which measures only cells with ionically intact plasma membranes (presumed live cells). Drug exposure time was 24 hours. Cell density values are expressed as a percentage of maximum for no drug or C6C only controls. Solid black lines in Panels A & B and dashed line in Panel B represent the average of all values across the PP2B-AIP concentration range ionically intact plasma membranes (presumed live cells). Drug exposure time was 24 hours. Cell density values are expressed as a percentage of maximum for no drug or C6C only controls. Solid black lines in Panels A & B and dashed line in Panel B represent the average of all values across the PP2B-AIP concentration range.
# [4] = PP2B-AIP alone, over the concentration range tested
molecule,measurement,setting,value
"CCCCCCCCCCCCC/C=C/[C@@H](O)[C@H](CO)NC(=O)CCCCC [C6C, N-Hexanoyl-D-erythro-Sphingosine]",fold more potent at inducing apoptosis in STR compared to STVP cells,MEL-STR cells [1],ca. 6 fold
same,potentiation of induction of apoptosis in combination with W-7,"MEL-STR cells [1]; C6C combined with W-7, 5 hr exposure",potentiated
same,"greater sensitivity / potency advantage, malignant versus non-malignant cells, induction of apoptosis",MEL-STR cells [1]; MEL-STR vs MEL-STVP,~10 fold
C=C1/C(=C\C=C2/CCC[C@]3(C)[C@@H]([C@H](C)CCCC(C)(C)O)CC[C@@H]23)C[C@@H](O)C[C@@H]1O [Calcitriol],reduction of the incidence of certain cancers,certain cancers,17-20%
"CCCCCCCCCCCCCC(=O)O[C@@H]1[C@@H](C)[C@@]2(O)[C@@H](C=C(CO)C[C@]3(O)C(=O)C(C)=C[C@@H]23)[C@@H]2C(C)(C)[C@]12OC(C)=O [PMA, Phorbol-12-Myristate-13-Acetate]",potentiation of induction of apoptosis in combination with W-7 (Annexin assay),MEL-STR cells [1]; PMA combined with submaximal W-7,shows potentiation; also recorded: synergy
same,potentiation of cell shape change in combination with W-7,"MEL-STR cells [2]; PMA combined with W-7, light scatter by FACS and microscopic examination",Potentiation is also confirmed; also recorded: synergistic drug effects
"Oc1ccc(Nc2nc(-c3ccc(Cl)cc3)cs2)cc1 [SKi, 4-[[4-(4-Chlorophenyl)-1,3-thiazol-2-yl]amino]phenol]",potentiation of induction of apoptosis in combination with W-7,MEL-STR cells [1]; SKi combined with W-7,synergy
"Cl.NCCCCCCNS(=O)(=O)c1cccc2c(Cl)cccc12 [W-7, N-(6-aminohexyl)-5-chloro-1-naphthalenesulfonamide hydrochloride]",induction of apoptosis at 10 μm,"MEL-STR cells [1]; 10 μm, previously determined",ineffective
same,fold more potent at inducing apoptosis in STR compared to STVP cells,MEL-STR cells [1],ca. 5 fold
same,"sensitivity to induction of apoptosis, malignant versus non-malignant cells","MEL-STR cells [1]; MEL-STR vs MEL-STVP, 5 hr. exposure, dose response (FIG. 3)",more than 10 times
same,"greater sensitivity / potency advantage, malignant versus non-malignant cells, induction of apoptosis",MEL-STR cells [1]; MEL-STR vs MEL-STVP,10 fold
same,time at which morphological rounding of cells can be observed,"MEL-STR cells [2]; 60 μm W-7, microscopically or by FACS light scatter",1 hr
same,population scoring positively for apoptosis,MEL-STR cells [3],> 90%
same,time at which induction of apoptosis can be seen,MEL-STR cells [3],3 h
Ac-RRRRRRRRRRRGGGRMAPPRRDAMPSDA-NH2 [PP2B-AIP],"induction of apoptosis, drug alone",MEL-STR cells [1]; [4],no visible induction of apoptosis
same,maximum of cells killed,"MEL-STR cells [1]; PP2B-AIP with C6C, 5 hr. exposure",≤ 50%
same,potentiation of apoptosis in combination with C6C,MEL-STR cells [1]; combined with C6C,potentiation is seen only in the transformed MEL-STR cell line
same,"induction of apoptosis, drug alone",MEL-STVP cells; [4],no visible induction of apoptosis
same,potentiation of apoptosis in combination with C6C,MEL-STVP cells; combined with C6C,not in untransformed MEL-STVP cells
same,"effect on growth, drug alone",STVP cells,no discernible effect
same,"effect on growth, drug alone",STR cells,no discernible effect
